Results published in US11420970B1 (NOVARTIS AG, priority 2019, dated 2022).
Like-named read-outs stand apart in the source and are kept apart here.

Assays:
NSD2 [1-1365] = NSD2 [1-1365] (Homo sapiens (Human), UniProt O96028); test: LC-MS/MS-based NSD2 enzymatic assay (SAH production); format: biochemical; settings: read-out: NSD2 IC50
Method in brief: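 Full-length NSD2 [1-1365] (8 nM final) with 1 μM SAM and 400 nM mouse-liver nucleosome in Tris pH 8.0 buffer; inhibitor preincubated 20 min with enzyme/SAM before nucleosome addition. Reaction 90 min at room temperature, TFA-quenched; SAH quantified by LC-MS/MS against d4-SAH internal standard and SAH standard curve.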

[1] = tested on: cellular H3K36me2 level in thyroid carcinoma cell line CGTH-W-1 (NSD2 E1099K); test: H3K36me2 cellular ELISA assay in CGTH-W-1 line; format: cell-based; settings: Homo sapiens, CGTH-W-1, 72 h, read-out: H3K36me2 ELISA in CGTH-W-1
Method in brief: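 CGTH-W-1 thyroid carcinoma cells (NSD2 E1099K gain-of-function) exposed to compound for 72 hours. Histone-bound plates probed for H3K36me2 and total H3 by chemiluminescent ELISA. Viability checked on a parallel plate with CellTiter-Glo.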

[2] = tested on: cellular H3K36me2 level in multiple myeloma cell line KMS11 (t(4;14)+); test: H3K36me2 cellular ELISA assay in KMS11-Par line; format: cell-based; settings: Homo sapiens, KMS-11, ELISA, read-out: H3K36me2 ELISA in KMS11-Par
Method in brief: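 KMS11 cells were seeded a day ahead at 1,250 per well in Opti-MEM with B-27/N2, then treated with compound for 72 h. Histones were acid-extracted with 0.4M HCl, and H3K36me2 and total H3 were read by chemiluminescent ELISA. Viability was checked with CellTiter-Glo on a parallel plate in maintenance media.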

[3] = NSD2 biochemical activity, class symbols
[4] = KMS11-Par line (t(4;14)+), 72 hours treatment

Chain of NSD2 [1-1365] (O96028 whole entry): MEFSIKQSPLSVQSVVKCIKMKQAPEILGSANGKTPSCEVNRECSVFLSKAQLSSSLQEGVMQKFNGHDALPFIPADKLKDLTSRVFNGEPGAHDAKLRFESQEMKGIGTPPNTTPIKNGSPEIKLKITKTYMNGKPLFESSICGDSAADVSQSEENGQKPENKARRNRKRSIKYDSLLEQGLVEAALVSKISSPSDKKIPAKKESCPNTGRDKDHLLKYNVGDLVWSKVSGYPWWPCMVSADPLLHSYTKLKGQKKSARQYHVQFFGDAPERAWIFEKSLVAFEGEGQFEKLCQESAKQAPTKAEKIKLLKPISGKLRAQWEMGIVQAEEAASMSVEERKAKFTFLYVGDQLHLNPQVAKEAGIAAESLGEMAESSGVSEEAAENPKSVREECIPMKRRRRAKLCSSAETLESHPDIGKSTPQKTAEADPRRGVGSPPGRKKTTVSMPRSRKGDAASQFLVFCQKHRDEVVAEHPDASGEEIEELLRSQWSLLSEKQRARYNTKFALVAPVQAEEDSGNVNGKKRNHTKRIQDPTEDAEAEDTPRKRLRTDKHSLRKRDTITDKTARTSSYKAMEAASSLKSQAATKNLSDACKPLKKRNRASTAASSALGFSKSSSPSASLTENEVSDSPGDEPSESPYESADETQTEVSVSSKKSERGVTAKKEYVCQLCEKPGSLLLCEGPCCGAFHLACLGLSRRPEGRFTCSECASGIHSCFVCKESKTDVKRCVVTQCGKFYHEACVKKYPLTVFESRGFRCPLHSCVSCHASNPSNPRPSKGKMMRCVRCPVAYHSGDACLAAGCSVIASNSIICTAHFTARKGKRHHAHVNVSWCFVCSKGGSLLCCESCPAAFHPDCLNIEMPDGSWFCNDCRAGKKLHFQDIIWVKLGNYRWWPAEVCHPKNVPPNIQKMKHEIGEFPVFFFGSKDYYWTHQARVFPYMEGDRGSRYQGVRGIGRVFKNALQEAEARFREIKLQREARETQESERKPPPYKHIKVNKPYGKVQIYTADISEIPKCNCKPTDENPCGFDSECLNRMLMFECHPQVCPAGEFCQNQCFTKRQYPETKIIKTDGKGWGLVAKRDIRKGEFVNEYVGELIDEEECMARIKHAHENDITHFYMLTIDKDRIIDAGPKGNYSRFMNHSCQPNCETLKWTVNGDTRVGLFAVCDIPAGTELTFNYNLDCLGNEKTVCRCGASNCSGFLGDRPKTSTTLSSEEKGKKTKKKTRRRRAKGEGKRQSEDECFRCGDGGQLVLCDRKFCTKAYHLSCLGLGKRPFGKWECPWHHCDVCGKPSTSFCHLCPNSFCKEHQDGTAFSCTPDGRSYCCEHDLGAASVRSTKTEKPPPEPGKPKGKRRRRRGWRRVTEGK

CC1(C(=O)C2(N)CCCN(c3cnc(-c4ccc(F)c(F)c4)cc3Cn3cnc4c(N)ncnc43)C2)CC1 (stereo not drawn) [Example 107, (3-amino-1-(4-((6-amino-9H-purin-9-yl)methyl)-6-(3,4-difluorophenyl)pyridin-3-yl)piperidin-3-yl)(1-methylcyclopropyl)methanone]
IC50 (NSD2 [1-1365]; [3]): 10 to 1000 nM | IC50 [1]: 446 nM | IC50 [2, 4]: 3020 nM

C#C[C@@]1(N)CCCN(c2cnc(-c3ccc(F)c(F)c3)cc2Cn2cnc3c(N)ncnc32)C1 [Example 304, (S)-9-((5-(3-amino-3-ethynylpiperidin-1-yl)-2-(3,4-difluorophenyl)pyridin-4-yl)methyl)-9H-purin-6-amine]
IC50 (NSD2 [1-1365]): 10 to 1000 nM | IC50 [1]: 101 nM | IC50 ([2]; KMS11-Par line, 72 hours): 592 nM

CC(C)[C@H](O)[C@@]1(N)CCCN(c2cnc(-c3ccc(F)c(F)c3)cc2Cn2cnc3c(N)ncnc32)C1 [Example 98, (S)-1-((R)-3-amino-1-(4-((6-amino-9H-purin-9-yl)methyl)-6-(3,4-difluorophenyl)pyridin-3-yl)piperidin-3-yl)-2-methylpropan-1-ol]
IC50 (NSD2 [1-1365]; [3]): 10 to 1000 nM | IC50 [1]: 1500 nM | IC50 [2, 4]: 6260 nM

Nc1ncnc2c1ncn2Cc1cc(-c2ccc(F)cc2F)ncc1N1CCC[C@](N)([C@@H](O)C(F)F)C1 [Example 147, (R)-1-((R)-3-amino-1-(4-((6-amino-9H-purin-9-yl)methyl)-6-(2,4-difluorophenyl)pyridin-3-yl)piperidin-3-yl)-2,2-difluoroethan-1-ol]
IC50 (NSD2 [1-1365]; [3]): 10 to 1000 nM | IC50 [1]: 44 nM | IC50 [2, 4]: 2490 nM

Cn1ccc(C[C@@]2(N)CCCN(c3cnc(-c4ccc(F)c(F)c4)cc3Cn3cnc4c(N)ncnc43)C2)n1 [Example 56, (S)-9-((5-(3-amino-3-((1-methyl-1H-pyrazol-3-yl)methyl)piperidin-1-yl)-2-(3,4-difluorophenyl)pyridin-4-yl)methyl)-9H-purin-6-amine]
IC50 (NSD2 [1-1365]; [3]): 1 to 10 nM | IC50 [1]: 273 nM | IC50 [2, 4]: 234 nM

CC(C(=O)C1(N)CCCN(c2cnc(-c3ccc(F)c(F)c3)cc2Cn2cnc3c(N)ncnc32)C1)C1CC1 (stereo not drawn) [Example 103, 1-(3-amino-1-(4-((6-amino-9H-purin-9-yl)methyl)-6-(3,4-difluorophenyl)pyridin-3-yl)piperidin-3-yl)-2-cyclopropylpropan-1-one]
IC50 (NSD2 [1-1365]; [3]): 10 to 1000 nM | IC50 [1]: 138 nM | IC50 [2, 4]: 379 nM

Nc1ncnc2c1ncn2Cc1cc(-c2ccc(F)cn2)ncc1N1CCC[C@](N)(c2cccc(Cl)n2)C1 [Example 196, (R)-9-((5-(3-amino-3-(6-chloropyridin-2-yl)piperidin-1-yl)-5′-fluoro-[2,2′-bipyridin]-4-yl)methyl)-9H-purin-6-amine]
IC50 (NSD2 [1-1365]): 10 to 1000 nM | IC50 [1]: 637 nM | IC50 ([2]; KMS11-Par line, 72 hours): 2690 nM

Nc1ncnc2c1ncn2Cc1cc(-c2ccc(C(F)F)cc2F)ncc1N1CCC[C@](N)([C@@H](O)C(F)F)C1 [Example 132, (R)-1-((R)-3-amino-1-(4-((6-amino-9H-purin-9-yl)methyl)-6-(4-(difluoromethyl)-2-fluorophenyl)pyridin-3-yl)piperidin-3-yl)-2,2-difluoroethan-1-ol]
IC50 (NSD2 [1-1365]; [3]): 1 to 10 nM | IC50 [1]: 264 nM | IC50 [2, 4]: 1230 nM

Nc1ncnc2c1ncn2Cc1cc(-c2ccc(F)c(F)c2)ncc1N1CC[C@@H](O)[C@@H](N)C1 [Example 3, (3S,4R)-3-amino-1-(4-((6-amino-9H-purin-9-yl)methyl)-6-(3,4-difluorophenyl)pyridin-3-yl)piperidin-4-ol]
IC50 (NSD2 [1-1365]; [3]): 10 to 1000 nM | IC50 [1]: 8250 nM | IC50 [2, 4]: 33300 nM

COc1ccc(-c2cc(Cn3cnc4c(N)ncnc43)c(N3CCC[C@](N)(c4ccc(F)c(Cl)n4)C3)cn2)cc1 [Example 216, (R)-9-((5-(3-amino-3-(6-chloro-5-fluoropyridin-2-yl)piperidin-1-yl)-2-(4-methoxyphenyl)pyridin-4-yl)methyl)-9H-purin-6-amine]
IC50 (NSD2 [1-1365]): 10 to 1000 nM | IC50 [1]: 1880 nM | IC50 ([2]; KMS11-Par line, 72 hours): 2570 nM

COc1ccc(-c2cc(Cn3cnc4c(N)ncnc43)c(N3CCC[C@](N)([C@H](O)C(F)F)C3)cn2)c(C(F)F)c1 [Example 163, (S)-1-((R)-3-amino-1-(4-((6-amino-9H-purin-9-yl)methyl)-6-(2-(difluoromethyl)-4-methoxyphenyl)pyridin-3-yl)piperidin-3-yl)-2,2-difluoroethan-1-ol]
IC50 (NSD2 [1-1365]; [3]): 1 to 10 nM | IC50 [1]: 204 nM | IC50 [2, 4]: 1850 nM

Nc1ncnc2c1ncn2Cc1cc(-c2ccc(F)c(F)c2)ncc1N1CCC[C@](N)(c2ccccn2)C1 [Example 198, (R)-9-((5-(3-amino-3-(pyridin-2-yl)piperidin-1-yl)-2-(3,4-difluorophenyl)pyridin-4-yl)methyl)-9H-purin-6-amine]
IC50 (NSD2 [1-1365]): 1 to 10 nM | IC50 [1]: 17.7 nM | IC50 ([2]; KMS11-Par line, 72 hours): 41 nM

Nc1ncnc2c1ncn2Cc1cc(-c2cnc(F)c(Cl)c2)ncc1N1CCC[C@](N)(c2cccc(Cl)n2)C1 [Example 180, (R)-9-((5-(3-amino-3-(6-chloropyridin-2-yl)piperidin-1-yl)-5′-chloro-6′-fluoro-[2,3′-bipyridin]-4-yl)methyl)-9H-purin-6-amine]
IC50 (NSD2 [1-1365]): 10 to 1000 nM | IC50 [1]: 1460 nM | IC50 ([2]; KMS11-Par line, 72 hours): 5490 nM

Nc1ncnc2c1ncn2Cc1cc(-c2ccc(F)c(F)c2)ncc1N1CCC[C@](N)(c2cc(O)cc(Cl)n2)C1 [Example 219, (R)-2-(3-amino-1-(4-((6-amino-9H-purin-9-yl)methyl)-6-(3,4-difluorophenyl)pyridin-3-yl)piperidin-3-yl)-6-chloropyridin-4-ol]
IC50 (NSD2 [1-1365]): 1 to 10 nM | IC50 [1]: 407 nM | IC50 ([2]; KMS11-Par line, 72 hours): 3450 nM

Nc1ncnc2c1ncn2Cc1cc(-c2cnc(F)c(F)c2)ncc1N1CCCC(N)(c2cccc(Cl)n2)C1 (stereo not drawn) [Example 240, 9-((5-(3-amino-3-(6-chloropyridin-2-yl)piperidin-1-yl)-5′,6′-difluoro-[2,3′-bipyridin]-4-yl)methyl)-9H-purin-6-amine]
IC50 (NSD2 [1-1365]): 10 to 1000 nM | IC50 [1]: 821 nM | IC50 ([2]; KMS11-Par line, 72 hours): 5930 nM

Nc1ncnc2c1ncn2Cc1cc(-c2ccc(F)c(Cl)n2)ncc1N1CCC[C@](N)([C@@H](O)C(F)F)C1 [Example 176, (R)-1-((R)-3-amino-1-(4-((6-amino-9H-purin-9-yl)methyl)-6′-chloro-5′-fluoro-[2,2′-bipyridin]-5-yl)piperidin-3-yl)-2,2-difluoroethan-1-ol]
IC50 (NSD2 [1-1365]): 10 to 1000 nM | IC50 [1]: 953 nM | IC50 ([2]; KMS11-Par line, 72 hours): 8970 nM

Cc1cc([C@@]2(N)CCCN(c3cnc(-c4ccc(F)c(F)c4)cc3Cn3cnc4c(N)ncnc43)C2)no1 [Example 284, (R)-9-((5-(3-amino-3-(5-methylisoxazol-3-yl)piperidin-1-yl)-2-(3,4-difluorophenyl)pyridin-4-yl)methyl)-9H-purin-6-amine]
IC50 (NSD2 [1-1365]): 1 to 10 nM | IC50 [1]: 111 nM | IC50 ([2]; KMS11-Par line, 72 hours): 254 nM

Nc1ncnc2c1ncn2Cc1cc(-c2ccc(F)cc2)ncc1N1CCCC(N)(c2ccc(F)c(CF)n2)C1 (stereo not drawn) [Example 193, 9-((5-(3-amino-3-(5-fluoro-6-(fluoromethyl)pyridin-2-yl)piperidin-1-yl)-2-(4-fluorophenyl)pyridin-4-yl)methyl)-9H-purin-6-amine]
IC50 (NSD2 [1-1365]): 10 to 1000 nM | IC50 [1]: 876 nM | IC50 ([2]; KMS11-Par line, 72 hours): 1850 nM

COc1ccc(-c2cc(Cn3cnc4c(N)ncnc43)c(N3CCC[C@](N)([C@@H](O)C(F)F)C3)cn2)cc1F [Example 131, (R)-1-((R)-3-amino-1-(4-((6-amino-9H-purin-9-yl)methyl)-6-(3-fluoro-4-methoxyphenyl)pyridin-3-yl)piperidin-3-yl)-2,2-difluoroethan-1-ol]
IC50 (NSD2 [1-1365]; [3]): 1 to 10 nM | IC50 [1]: 142 nM | IC50 [2, 4]: 887 nM

Nc1ncnc2c1ncn2Cc1cc(-c2ccc(OC(F)F)c(F)c2)ncc1N1CCC[C@](N)([C@@H](O)C(F)F)C1 [Example 119, (R)-1-((R)-3-amino-1-(4-((6-amino-9H-purin-9-yl)methyl)-6-(4-(difluoromethoxy)-3-fluorophenyl)pyridin-3-yl)piperidin-3-yl)-2,2-difluoroethan-1-ol]
IC50 (NSD2 [1-1365]; [3]): 1 to 10 nM | IC50 [1]: 228 nM | IC50 [2, 4]: 1490 nM

Nc1ncnc2c1ncn2Cc1cc(-c2ccc(F)c(F)c2)ncc1N1CCC[C@](N)([C@H](O)C(F)(F)F)C1 [Example 299, (S)-1-((R)-3-amino-1-(4-((6-amino-9H-purin-9-yl)methyl)-6-(3,4-difluorophenyl)pyridin-3-yl)piperidin-3-yl)-2,2,2-trifluoroethan-1-ol]
IC50 (NSD2 [1-1365]): 10 to 1000 nM | IC50 [1]: 1160 nM | IC50 ([2]; KMS11-Par line, 72 hours): 9830 nM

Nc1ncnc2c1ncn2Cc1cc(-c2ccc(F)c(F)c2)ncc1N1CCC[C@](N)(c2cccc(Cl)n2)C1 [Example 200, (R)-9-((5-(3-amino-3-(6-chloropyridin-2-yl)piperidin-1-yl)-2-(3,4-difluorophenyl)pyridin-4-yl)methyl)-9H-purin-6-amine]
IC50 (NSD2 [1-1365]): 1 to 10 nM | IC50 [1]: 180 nM | IC50 ([2]; KMS11-Par line, 72 hours): 330 nM

COc1ccc(-c2cc(Cn3cnc4c(N)ncnc43)c(N3CCC[C@](N)(c4cccc(Cl)n4)C3)cn2)c(F)c1 [Example 181, (R)-9-((5-(3-amino-3-(6-chloropyridin-2-yl)piperidin-1-yl)-2-(2-fluoro-4-methoxyphenyl)pyridin-4-yl)methyl)-9H-purin-6-amine]
IC50 (NSD2 [1-1365]): 10 to 1000 nM | IC50 [1]: 1560 nM | IC50 ([2]; KMS11-Par line, 72 hours): 1980 nM
